MIC data for 18 molecules are collected here from patent US8022072B2, “Azolylmethylidenehydrazine derivative and use thereof” (Kaken Pharmaceutical Co., Ltd., priority 2007, dated 2011).

Converted amounts (≈) assume the structure as drawn.

Format in all cases: cell-based
For assay [1], the system named is Malassezia furfur IFO-0656. The experiment in a line: Antifungal activity evaluation test, MIC by urease activity, Malassezia furfur IFO-0656. The note with it: IFO0656, 96 h, MU medium, 30° C., day 4 or 5, urease activity of 20% or below, read-out: MIC M. fur. IFO-0656. As to the method:
(§1) The minimum inhibitory concentration (MIC) for Trichophyton mentagrophytes, Trichophyton rubrum, and Malassezia furfur was measured according to the following procedure. • Test compound solution: A test compound was dissolved in dimethyl sulfoxide (DMSO) at a concentration of 5 mg/mL as a stock solution. […] Then, as a test medium, a fungal solution of Trichophyton species was 100-fold diluted with Sabouraud Dextrose Broth (Difco), and a fungal solution of Malassezia furfur IFO-0656 was 100-fold diluted with MU medium to give each inoculum (2×10^4 cells/mL). • Measurement of MIC of Trichophyton fungi: Sabouraud Dextrose Broth (Difco) was dispensed by 100 μL to a given well of a 96 well flat microplate. Then, a test compound solution (2 μL) was added, and the mixture was thoroughly mixed with a plate mixer. A fungal solution (100 μL) was inoculated and cultured at 30° C. for 7 days. The presence or absence of the cell growth was visually observed, and the minimum medicament concentration at which the cell growth was prevented was taken as MIC (μg/mL). • Measurement of MIC of Malassezia furfur: Since the urease activity of this fungus and the fungus growth rate are co-related, MIC was evaluated by the following method using urease activity as an index. MU medium was dispensed by 100 μL to a given well of a 96 well flat microplate. Then, a test compound solution (2 μL) was added, and the mixture was thoroughly mixed with a plate mixer. A fungal solution (100 μL) was inoculated and cultured at 30° C. The culture was stopped on day 4 or 5 of culture when the color tone of the MU medium changes from yellow to red in visual observation of the fungus growth in a well free of addition of a test substance. Then the plate was stirred until the fungus became uniform, and the urease activity was measured based on the measurement of absorbance at 550 nm using a plate reader.

Assay [2] has as its system Trichophyton mentagrophytes SM-110. The assay can be described thus: Antifungal activity evaluation test, MIC, Trichophyton mentagrophytes SM-110. The note with it: SM110, 168 h, Sabouraud Dextrose Broth, 30° C., 7 days, visual, read-out: MIC T. men. SM-110. How it is done: as §1
Assay [3] deals with Trichophyton rubrum KD-107. The experiment in a line: Antifungal activity evaluation test, MIC, Trichophyton rubrum KD-107. Conditions: KD107, 168 h, Sabouraud Dextrose Broth, 30° C., 7 days, visual, read-out: MIC T. rub. KD-107. As to the method: as §1
For assay [4], the system named is Trichophyton rubrum KD-101. The experiment in a line: Antifungal activity evaluation test, MIC, Trichophyton rubrum KD-101. The note with it: KD101, 168 h, Sabouraud Dextrose Broth, 30° C., 7 days, visual, read-out: MIC T. rub. KD-101. How it is done: as §1
Assay [5] deals with Trichophyton mentagrophytes KD-04. The experiment in a line: Antifungal activity evaluation test, MIC, Trichophyton mentagrophytes KD-04. Conditions: KD04, 168 h, Sabouraud Dextrose Broth, 30° C., 7 days, visual, read-out: MIC T. men. KD-04. As to the method:
as §1

In the case of `CC(C)Oc1ccccc1C(=NN(C)C)n1ccnc1` [Compound No. 19, N′-[1-imidazol-1-yl-1-(2-isopropoxyphenyl)methylidene]-N,N-dimethylhydrazine], the MIC (in general, the smallest concentration in the dilution series that meets the test's criterion for growth inhibition) amounted to 25 µg/mL (≈ 91.8 µM) in assay [1]; 0.2 µg/mL (≈ 0.734 µM) in assay [2]; 0.2 µg/mL (≈ 0.734 µM) in assay [3]; 0.78 µg/mL (≈ 2.86 µM) in assay [4]; 0.2 µg/mL (≈ 0.734 µM) in assay [5].
Consider `CCCCCOc1ccc(F)cc1C(=NN(C)C)n1ccnc1` [Compound No. 25, N′-[1-(3-fluoro-6-pentyloxyphenyl)-1-imidazol-1-ylmethylidene]-N,N-dimethylhydrazine], for which the MIC stood at 0.39 µg/mL (≈ 1.22 µM) in assay [1]; 0.1 µg/mL (≈ 0.314 µM) in assay [2]; 0.05 µg/mL (≈ 0.157 µM) in assay [3]; 0.05 µg/mL (≈ 0.157 µM) in assay [4]; 0.05 µg/mL (≈ 0.157 µM) in assay [5].
Take `CN(C)N=C(c1ccccc1OCc1ccccc1)n1ccnc1` [Compound No. 34, N′-[1-(2-benzyloxyphenyl)-1-imidazol-1-ylmethylidene]-N,N-dimethylhydrazine]: the MIC was 0.62 µg/mL (≈ 1.94 µM) in assay [1]; 0.2 µg/mL (≈ 0.624 µM) in assay [2]; 0.1 µg/mL (≈ 0.312 µM) in assay [3]; 0.2 µg/mL (≈ 0.624 µM) in assay [4]; 0.2 µg/mL (≈ 0.624 µM) in assay [5].
As to `COc1cccc(COc2ccccc2C(=NN(C)C)n2ccnc2)c1` [Compound No. 53, N′-[1-imidazol-1-yl-1-[2-(3-methoxybenzyloxy)phenyl]methylidene]-N,N-dimethylhydrazine], the MIC in assay [1] was found to be 0.78 µg/mL (≈ 2.23 µM); in assay [2], 0.39 µg/mL (≈ 1.11 µM); in assay [3], 0.1 µg/mL (≈ 0.285 µM); in assay [4], 0.2 µg/mL (≈ 0.571 µM); in assay [5], 0.2 µg/mL (≈ 0.571 µM).
Consider `CN(C)N=C(c1ccccc1OCCCc1ccccc1)n1ccnc1` [Compound No. 61, N′-[1-imidazol-1-yl-1-[2-(3-phenylpropoxy)phenyl]methylidene]-N,N-dimethylhydrazine], for which the MIC in assay [1] amounted to 0.2 µg/mL (≈ 0.574 µM); in assay [2], 0.1 µg/mL (≈ 0.287 µM); in assay [3] it was 0.025 µg/mL (≈ 0.0717 µM); in assay [4], 0.05 µg/mL (≈ 0.143 µM); in assay [5] it was 0.05 µg/mL (≈ 0.143 µM).
Take `CSc1ccccc1C(=NN(C)C)n1ccnc1` [Compound No. 79, N′-[1-imidazol-1-yl-1-(2-methylthiophenyl)methylidene]-N,N-dimethylhydrazine]: the MIC in assay [1] was over 25 µg/mL; in assay [2], 0.39 µg/mL (≈ 1.5 µM); in assay [3] it was 0.39 µg/mL (≈ 1.5 µM); in assay [4], 0.39 µg/mL (≈ 1.5 µM); in assay [5], 0.39 µg/mL (≈ 1.5 µM).
As to `CN(C)N=C(c1ccccc1SCCOc1ccccc1)n1ccnc1` [Compound No. 85, N′-[1-imidazol-1-yl-1-[2-(2-phenoxyethylthio)phenyl]methylidene]-N,N-dimethylhydrazine], the MIC amounted to 0.05 µg/mL (≈ 0.136 µM) in assay [1]; 0.2 µg/mL (≈ 0.546 µM) in assay [2]; 0.05 µg/mL (≈ 0.136 µM) in assay [3]; 0.1 µg/mL (≈ 0.273 µM) in assay [4]; 0.1 µg/mL (≈ 0.273 µM) in assay [5].
Take `CCCCCN(C)c1ccccc1C(=NN(C)C)n1ccnc1` [Compound No. 87, N′-[1-imidazol-1-yl-1-[2-(N-methyl-N-pentylamino)phenyl]methylidene]-N,N-dimethylhydrazine]: the MIC was 0.78 µg/mL (≈ 2.49 µM) in assay [1]; 0.1 µg/mL (≈ 0.319 µM) in assay [2]; 0.05 µg/mL (≈ 0.16 µM) in assay [3]; 0.05 µg/mL (≈ 0.16 µM) in assay [4]; 0.05 µg/mL (≈ 0.16 µM) in assay [5].
As to `CCCCCOc1ccc2ccccc2c1C(=NN(C)C)n1ccnc1` [Compound No. 93, N′-[1-imidazol-1-yl-1-(2-pentyloxynaphthalen-1-yl)methylidene]-N,N-dimethylhydrazine], the MIC in assay [1] worked out at 6.25 µg/mL (≈ 17.8 µM); in assay [2], 0.39 µg/mL (≈ 1.11 µM); in assay [3], 0.1 µg/mL (≈ 0.285 µM); in assay [4], 0.1 µg/mL (≈ 0.285 µM); in assay [5], 0.2 µg/mL (≈ 0.571 µM).
For `CCCCCOc1cccnc1C(=NN(C)C)n1ccnc1` [Compound No. 95, N′-[1-imidazol-1-yl-1-(3-pentyloxypyridin-2-yl)methylidene]-N,N-dimethylhydrazine], the MIC in assay [1] was over 25 µg/mL; in assay [2], 3.13 µg/mL (≈ 10.4 µM); in assay [3], 0.78 µg/mL (≈ 2.59 µM); in assay [4], 1.56 µg/mL (≈ 5.18 µM); in assay [5], 1.56 µg/mL (≈ 5.18 µM).
On to `CCCCCCn1cccc1C(=NN(C)C)n1ccnc1` [Compound No. 104, N′-[1-(1-hexylpyrrol-2-yl)-1-imidazol-1-ylmethylidene]-N,N-dimethylhydrazine], for which the MIC in assay [1] is over 25 µg/mL; in assay [2], 0.05 µg/mL (≈ 0.174 µM); in assay [3], 0.025 µg/mL (≈ 0.087 µM); in assay [4] it was 0.025 µg/mL (≈ 0.087 µM); in assay [5] it was 0.025 µg/mL (≈ 0.087 µM).
In the case of `CCN(CC)N=C(c1ccccc1OCc1ccc(Cl)cc1)n1ccnc1` [Compound No. 118, N′-[1-[2-(4-chlorobenzyloxy)phenyl]-1-imidazol-1-ylmethylidene]-N,N-diethylhydrazine], the MIC in assay [1] stood at 0.39 µg/mL (≈ 1.02 µM); in assay [2] it was 0.2 µg/mL (≈ 0.522 µM); in assay [3], 0.05 µg/mL (≈ 0.131 µM); in assay [4] it was 0.1 µg/mL (≈ 0.261 µM); in assay [5], 0.1 µg/mL (≈ 0.261 µM).
Take `CN(N=C(c1ccccc1Cl)n1ccnc1)c1ccc(Cl)cc1` [Compound No. 141, N-(4-chlorophenyl)-N′-[1-(2-chlorophenyl)-1-imidazol-1-ylmethylidene]-N-methylhydrazine]: the minimal inhibitory concentration (MIC) is over 10 µg/mL in assay [1]; 0.39 µg/mL (≈ 1.13 µM) in assay [2]; 0.2 µg/mL (≈ 0.579 µM) in assay [3]; 0.39 µg/mL (≈ 1.13 µM) in assay [4]; 0.2 µg/mL (≈ 0.579 µM) in assay [5].
Take `Fc1ccc(COc2ccccc2C(=NN2CCCC2)n2ccnc2)cc1` [Compound No. 158, [1-[2-(4-fluorobenzyloxy)phenyl]-1-imidazol-1-ylmethylidene]pyrrolidin-1-ylamine]: the MIC in assay [1] is 1.56 µg/mL (≈ 4.28 µM); in assay [2], 0.2 µg/mL (≈ 0.549 µM); in assay [3] it was 0.1 µg/mL (≈ 0.274 µM); in assay [4] it was 0.2 µg/mL (≈ 0.549 µM); in assay [5], 0.2 µg/mL (≈ 0.549 µM).
Turning to `CCCCCOc1ccccc1C(=NN1CCCCC1)n1ccnc1` [Compound No. 173, [1-imidazol-1-yl-1-(2-pentyloxyphenyl)methylidene]piperidin-1-ylamine], the MIC stood at 0.39 µg/mL (≈ 1.15 µM) in assay [1]; 0.2 µg/mL (≈ 0.587 µM) in assay [2]; 0.1 µg/mL (≈ 0.294 µM) in assay [3]; 0.1 µg/mL (≈ 0.294 µM) in assay [4]; 0.2 µg/mL (≈ 0.587 µM) in assay [5].
On to `CCc1ccccc1C(=NN1CCCCCC1)n1ccnc1` [Compound No. 184, [1-(2-ethylphenyl)-1-imidazol-1-ylmethylidene]homopiperidin-1-ylamine], for which the MIC in assay [1] was determined as 1.56 µg/mL (≈ 5.26 µM); in assay [2], 0.1 µg/mL (≈ 0.337 µM); in assay [3] it was 0.05 µg/mL (≈ 0.169 µM); in assay [4] it was 0.05 µg/mL (≈ 0.169 µM); in assay [5], 0.05 µg/mL (≈ 0.169 µM).
For the molecule `CC(C)Oc1ccccc1C(=NN1CCCCCC1)n1ccnc1` [Compound No. 198, homopiperidin-1-yl-[1-imidazol-1-yl-1-(2-isopropoxyphenyl)methylidene]amine], the MIC was 0.78 µg/mL (≈ 2.39 µM) in assay [1]; 0.2 µg/mL (≈ 0.613 µM) in assay [2]; 0.1 µg/mL (≈ 0.306 µM) in assay [3]; 0.2 µg/mL (≈ 0.613 µM) in assay [4]; 0.1 µg/mL (≈ 0.306 µM) in assay [5].
With `C=CCOc1ccccc1C(=NN1CCCCCC1)n1ccnc1` [Compound No. 200, homopiperidin-1-yl-[1-imidazol-1-yl-1-[2-(2-propenyloxy)phenyl]methylidene]amine], the MIC in assay [1] amounted to 0.2 µg/mL (≈ 0.616 µM); in assay [2], 0.1 µg/mL (≈ 0.308 µM); in assay [3], 0.1 µg/mL (≈ 0.308 µM); in assay [4], 0.1 µg/mL (≈ 0.308 µM); in assay [5], 0.1 µg/mL (≈ 0.308 µM).
